Data on ten compounds can be found in ChEMBL document CHEMBL1201862, “PubChem BioAssay data set” (2004).

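Test compounds were applied to cells in 96-well plates for 48 hours at 5 doses. Abbreviation: GI50, concentration required for 50% inhibition of growth.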 Active and inactive are the calls of the source. Cut-off read from the data, not from the text of the source: active = GI50 up to about 1.1 µM and inactive = higher.

Among the test systems are A549; COLO 205; DMS-114; HCC 2998; HCT-15; HL-60; K562; KM12; MOLT-4; NCI-H23; OVCAR-8; SF-539; SN12C; SR; TK-10.
Common to all, as to test: NCI-60 cell line screen, 48 h

In the case of `N#Cc1ccccc1NC(=O)C(=O)C1NC(=S)NC1=O` (stereo not given), the GI50 in the assay on A549 is > 100 µM (inactive); in the assay on COLO 205, > 100 µM (inactive); with DMS-114 it was > 100 µM (inactive); with HCC 2998 it was > 100 µM (inactive); in the assay with HCT-15, more than 100 µM; in the assay on HL-60, > 100 µM (inactive). In addition, the GI50 in the assay on K562, in the assay with KM12, in the assay on MOLT-4, in the assay with NCI-H23, in the assay on OVCAR-8 and in the assay on SF-539 was > 100 µM (inactive) each time. Also, the GI50 in the assay on SN12C, in the assay on SR and in the assay on TK-10 was > 100 µM (inactive) throughout.

As for `O=C(CC1(O)C(=O)Nc2ccccc21)c1ccc(Cl)c(Cl)c1` (stereo not given), the GI50 was > 100 µM (inactive) with A549; > 100 µM (inactive) in the assay with COLO 205; > 100 µM (inactive) with DMS-114; > 100 µM (inactive) in the assay on HCC 2998; more than 100 µM with HCT-15; 22.8 µM (inactive) in the assay on HL-60. The GI50 with K562, in the assay with MOLT-4, with NCI-H23, with SF-539, with SN12C and in the assay with SR was > 100 µM (inactive) in each case.

For the compound `Cc1ccc([N+](=O)[O-])cc1NC(=O)/C(=N/NC(=S)NN)C1SC(=S)NC1=O` (stereo not given), the GI50 with A549 was > 100 µM (inactive); in the assay with COLO 205 it was > 100 µM (inactive); in the assay with DMS-114, > 100 µM (inactive); in the assay with HCT-15, more than 100 µM; with HL-60, 78.3 µM (inactive); in the assay on K562, > 100 µM (inactive). The GI50 is > 100 µM (inactive) in the assay with KM12; 78.9 µM (inactive) in the assay on MOLT-4; > 100 µM (inactive) with NCI-H23; > 100 µM (inactive) in the assay with OVCAR-8; > 100 µM (inactive) with SF-539; > 100 µM (inactive) with SN12C. For the same compound, the GI50 with SR and in the assay with TK-10 was > 100 µM (inactive) each time.

Regarding `COC(=O)Nc1nc2cc(Br)ccc2[nH]1`, the GI50 is 50.8 µM (inactive) in the assay on A549; 23.8 µM (inactive) with COLO 205; 23.1 µM (inactive) in the assay on DMS-114; 33.6 µM (inactive) in the assay with HCC 2998; 8.34 µM in the assay on HCT-15; 13.3 µM (inactive) in the assay on HL-60. The GI50 in the assay on K562 was 17.6 µM (inactive); with KM12, 9.29 µM (inactive); with MOLT-4, 53.8 µM (inactive); in the assay on NCI-H23, 32.7 µM (inactive); in the assay on OVCAR-8 it was 32.6 µM (inactive); in the assay with SF-539 it was 22.6 µM (inactive). Further, the GI50 in the assay on SN12C was > 100 µM (inactive); in the assay on SR, 6.44 µM (inactive); in the assay on TK-10, 58.7 µM (inactive).

In the case of `C/N=C1\CC2c3cc(OC)c(OC)cc3CCN2C2=C1C(=O)CC(C)(C)C2` (stereo not given), the GI50 in the assay on A549 was > 100 µM (inactive); with COLO 205, > 100 µM (inactive); in the assay with DMS-114, > 100 µM (inactive); in the assay on HCC 2998, > 100 µM (inactive); in the assay on HCT-15 it was more than 10 µM; in the assay on HL-60, > 100 µM (inactive). The GI50 with KM12, with MOLT-4, in the assay on NCI-H23, in the assay on OVCAR-8, in the assay with SF-539 and with SN12C was > 100 µM (inactive) each time. Besides, the GI50 in the assay with SR and with TK-10 was > 100 µM (inactive) each time.

As to `COc1c(C)cc2c(C(C)C)c(O)c(O)c(C=O)c2c1O`, the GI50 in the assay with A549 is 31.7 µM (inactive); in the assay on COLO 205, 16.4 µM (inactive); in the assay on DMS-114, 17.8 µM (inactive); in the assay with HCC 2998, 33.9 µM (inactive); with HCT-15, 24.5 µM; in the assay on HL-60, 25.9 µM (inactive). Moreover, the GI50 in the assay on K562 is 17.2 µM (inactive); in the assay on KM12, 18.3 µM (inactive); in the assay on MOLT-4, 55.7 µM (inactive); with NCI-H23 it was 18.3 µM (inactive); with OVCAR-8, 27.4 µM (inactive); with SF-539, 17.8 µM (inactive). The GI50 was 27.7 µM (inactive) in the assay on SN12C and 37 µM (inactive) in the assay on TK-10.

Regarding `COC(=O)c1c(OC(=O)c2ccccc2)noc1CC(=O)OC1C=CCCC1` (stereo not given), the GI50 was > 100 µM (inactive) in the assay with A549; > 100 µM (inactive) in the assay on COLO 205; 38.5 µM (inactive) with DMS-114; > 100 µM (inactive) with HCC 2998; 86.1 µM in the assay with HCT-15; 35.1 µM (inactive) in the assay with HL-60. The GI50 is 72.6 µM (inactive) with K562; > 100 µM (inactive) in the assay on KM12; 25.5 µM (inactive) in the assay on MOLT-4; > 100 µM (inactive) in the assay with OVCAR-8; > 100 µM (inactive) in the assay with SF-539; > 100 µM (inactive) in the assay on SN12C. Further, the GI50 in the assay with SR and with TK-10 was > 100 µM (inactive) in each case.

For `CCCCC(C(=O)CCC(=O)Nc1ccc(Cl)c(Cl)c1)C(=O)C(C)C` (stereo not given), the GI50 in the assay with A549 is > 100 µM (inactive); in the assay on COLO 205 it was > 100 µM (inactive); in the assay with DMS-114, > 100 µM (inactive); in the assay on HCC 2998, > 100 µM (inactive); in the assay on HCT-15, more than 100 µM; with HL-60, > 100 µM (inactive). Moreover, the GI50 is 40.9 µM (inactive) in the assay on K562; 84.7 µM (inactive) with KM12; > 100 µM (inactive) with MOLT-4; > 100 µM (inactive) with NCI-H23; > 100 µM (inactive) with OVCAR-8; > 100 µM (inactive) in the assay with SF-539. The GI50 in the assay on SN12C is > 100 µM (inactive); in the assay on SR it was > 100 µM (inactive); in the assay with TK-10, 90.4 µM (inactive).

Consider `Cc1ccn2c(c1)nc1nc3ccccc3nc12`, for which the GI50 in the assay with A549 is > 100 µM (inactive); with COLO 205, > 100 µM (inactive); in the assay with DMS-114, > 100 µM (inactive); in the assay on HCT-15, more than 100 µM; in the assay with HL-60, > 100 µM (inactive); in the assay with K562, > 100 µM (inactive). Also, the GI50 in the assay on KM12, with NCI-H23, in the assay with OVCAR-8, with SF-539, in the assay with SR and in the assay on TK-10 was > 100 µM (inactive) in each case.

`CC[C@@H]1C[C@H]2CC3c4[nH]c5ccc(O)cc5c4CCN(C2)C31`: the GI50 was > 100 µM (inactive) with A549; > 100 µM (inactive) in the assay with COLO 205; > 100 µM (inactive) in the assay on DMS-114; > 100 µM (inactive) in the assay on HCC 2998; more than 100 µM with HCT-15; > 100 µM (inactive) with HL-60. In addition, the GI50 with K562 was 99.5 µM (inactive); with KM12, > 100 µM (inactive); with MOLT-4 it was > 100 µM (inactive); with NCI-H23, > 100 µM (inactive); in the assay with OVCAR-8 it was > 100 µM (inactive); with SF-539, > 100 µM (inactive). In addition, the GI50 with SN12C, in the assay with SR and in the assay on TK-10 was > 100 µM (inactive) each time.
